Reference: patent publication US11089783B2, “2-(het)aryl-substituted fused heterocycle derivatives as pesticides” (Bayer Aktiengesellschaft, priority 2017, dated 2021)

Key:
Assay type in all cases: in vivo
Phaedon cochleariae = Phaedon cochleariae spray test (PHAECO), Chinese cabbage leaf discs; set-up: key to repellent effect flag: REP = repellent effect; details: for pest or weed control at 100 g/ha: read-out: efficacy
Description: (§1) [table] To produce a suitable active ingredient formulation, 1 part by weight of active ingredient is dissolved with the specified parts by weight of solvent and made up to the desired concentration with water containing an emulsifier concentration of 1000 ppm. To produce further test concentrations, the formulation is diluted with emulsifier-containing water. Discs of Chinese cabbage leaves (Brassica pekinensis) are sprayed with an active ingredient formulation of the desired concentration and, after drying, populated with larvae of the mustard beetle (Phaedon cochleariae). After 7 days, the efficacy in % is determined. 100% means that all the beetle larvae have been killed; 0% means that no beetle larvae have been killed. [table] To produce an appropriate active ingredient formulation, 1 part by weight of active ingredient is dissolved with the stated parts by weight of solvent and made up with water containing an emulsifier concentration of 1000 ppm until the desired concentration is attained. For production of further test concentrations, the mixture is diluted with emulsifier-containing water. Discs of chinese cabbage leaves (Brassica pekinensis) are sprayed with an active ingredient formulation of the desired concentration and, after drying, populated with larvae of the mustard beetle (Phaedon cochleariae). After the desired time, the efficacy in % is determined. 100% means that all beetle larvae have been killed; 0% means that no beetle larvae have been killed.

Nezara viridula = Nezara viridula spray test (NEZARA / NEZAVI); details: Nezara viridula, 96 h, 4 dat, read-out: % efficacy
Description: (§2) [table] To produce an appropriate active ingredient formulation, 1 part by weight of active ingredient is dissolved with the specified parts by weight of solvent and made up with water containing an emulsifier concentration of 1000 ppm until the desired concentration is attained. To produce further test concentrations, the mixture is diluted with emulsifier-containing water. If addition of ammonium salts or/and penetrants is required, these are each added to the preparation solution in a concentration of 1000 ppm. Barley plants (Hordeum vulgare) infected with larvae of the southern green shield bug (Nezara viridula) are sprayed with an active ingredient formulation of the desired concentration. After the desired time, the efficacy in % is determined. 100% means that all bugs have been killed; 0% means that no bugs have been killed.

Myzus persicae [1] = assay: Myzus persicae oral test; details: 120 h, after 5 days, read-out: efficacy
Description: [table] To produce a suitable active ingredient formulation, 1 part by weight of active ingredient is dissolved with the stated parts by weight of solvent and made up to the desired concentration with water. 50 μl of the active ingredient preparation are transferred into microtitre plates and made up to a final volume of 200 μl with 150 μl of IPL41 insect medium (33%+15% sugar). Subsequently, the plates are sealed with parafilm, which a mixed population of green peach aphids (Myzus persicae) within a second microtitre plate is able to puncture and imbibe the solution. After 5 days, the efficacy in % is determined. 100% means that all the aphids have been killed; 0% means that no aphids have been killed.

Lucilia cuprina = Lucilia cuprina test; details: 48 h, L1 larvae, after 2 days, read-out: efficacy (kill)
Description: Solvent: dimethyl sulfoxide To produce a suitable active ingredient formulation, 10 mg of active ingredient are mixed with 0.5 ml of dimethyl sulfoxide, and the concentrate is diluted with water to the desired concentration. About 20 L1 larvae of the Australian sheep blowfly (Lucilia cuprina) are transferred into a test vessel containing minced horsemeat and the active ingredient formulation of the desired concentration. After 2 days, the kill in % is determined. 100% means that all the larvae have been killed; 0% means that no larvae have been killed.

Meloidogyne incognita = Meloidogyne incognita test (MELGIN); details: 14 days (14 dat); for pest or weed control at 20 ppm: Meloidogyne incognita, 336 h, read-out: efficacy (nematicidal, gall formation)
Description: [table] To produce a suitable active ingredient formulation, 1 part by weight of active ingredient is mixed with the stated amount of solvent and the concentrate is diluted to the desired concentration with water. Vessels are filled with sand, active ingredient solution, an egg/larvae suspension of the southern root-knot nematode (Meloidogyne incognita) and lettuce seeds. The lettuce seeds germinate and the plants develop. The galls develop on the roots. After 14 days, the nematicidal efficacy in % is determined by the formation of galls. 100% means that no galls were found; 0% means that the number of galls on the treated plants corresponds to the untreated control. [table] To produce an appropriate active ingredient formulation, 1 part by weight of active ingredient is mixed with the specified amount of solvent and the concentrate is diluted to the desired concentration with water. Vessels are filled with sand, active ingredient solution, an egg/larvae suspension of the southern root-knot nematode (Meloidogyne incognita) and lettuce seeds. The lettuce seeds germinate and the plants develop. The root-knots develop on the roots. After the desired time, the nematicidal effect is determined from the formation of root-knots in %. 100% means that no root-knots were found; 0% means that the number of root-knots on the treated plants corresponds to that on the untreated control.

Myzus persicae [2] = assay: Myzus persicae spray test (MYZUPE), Chinese cabbage leaf discs; details: for pest or weed control at 20 g/ha / pest or weed control at 100 g/ha: Myzus persicae, foliar, 120 h, 5 days (5 dat), read-out: efficacy
Description: as §1, with “pekinensis) infested by all stages of the green peach aphid (Myzus persicae)” for “pekinensis)”, “concentration.” for “concentration and, after drying, populated with larvae of the mustard beetle (Phaedon cochleariae).”, “5” for “7”, “aphids” for “beetle larvae”

Aphis gossypii = Aphis gossypii spray test (APHIGO), cotton plants; details: 6 dat; for Emax at 0.8 ppm: Aphis gossypii, 144 h, read-out: % efficacy
Description: as §2, with “Cotton” for “Barley”, “(Gossypium hirsutum) severely infested by” for “(Hordeum vulgare) infected with larvae of”, “cotton aphid (Aphis gossypii)” for “southern green shield bug (Nezara viridula)”, “kill” for “efficacy”, “aphids” for “bugs”

Myzus persicae [3] = assay: Myzus persicae spray test (MYZUPE S), bell pepper plants; details: 144 h, 0.8 ppm, 6 dat, read-out: % efficacy
Description: [table] To produce an appropriate active ingredient formulation, 1 part by weight of active ingredient is dissolved with the specified parts by weight of solvent and made up with water containing an emulsifier concentration of 1000 ppm until the desired concentration is attained. To produce further test concentrations, the mixture is diluted with emulsifier-containing water. If addition of ammonium salts or/and penetrants is required, these are each added to the preparation solution in a concentration of 1000 ppm. Bell pepper plants (Capsicum annuum) severely infested by the green peach aphid (Myzus persicae) are treated by spraying with the active ingredient formulation in the desired concentration. After the desired time, the kill in % is determined. 100% means that all the animals have been killed; 0% means that no animals have been killed.

Nilaparvata lugens = Nilaparvata lugens spray test (NILALU); details: 4 g/ha, 4 dat
Description: as §2, with “Rice” for “Barley”, “(Oryza sativa)” for “(Hordeum vulgare) infected with larvae of the southern green shield bug (Nezara viridula)”, “concentration and then populated with larvae of the brown planthopper (Nilaparvata lugens).” for “concentration.”, “planthoppers” for “bugs”

[4] = Phaedon cochleariae, foliar, 168 h, 100 g/ha, 7 days (7 dat)
[5] = Phaedon cochleariae, foliar, 168 h, PHAECO, 20 g/ha, 7 dat, read-out: % efficacy
[6] = Phaedon cochleariae, foliar, 168 h, PHAECO, 20 g/ha, 7 dat

| SMILES | pest or weed control at 100 g/ha (Phaedon cochleariae; [4]) [%] | Emax at 20 g/ha (Phaedon cochleariae; [5]) [%] | percent efficacy (larval mortality) at a fixed application rate at 20 g/ha (Phaedon cochleariae; [6]) [%] | pest or weed control at 0.8 ppm (Myzus persicae [1]) [%] | pest or weed control at 20 g/ha (Myzus persicae [2]) [%] | pest or weed control at 100 g/ha (Myzus persicae [2]) [%] | other results |
| --- | --- | --- | --- | --- | --- | --- | --- |
| CCNC(=O)Nc1ccc(S(=O)(=O)CC)c(-c2nc3cc(C(F)(F)F)nnc3n2C)n1 [reference compound] | 50 | 67 |  |  |  |  | Emax at 4 g/ha (Phaedon cochleariae; Phaedon cochleariae, foliar, 168 h, PHAECO, 4 g/ha, 7 dat, read-out: % efficacy): 0%; Emax at 4 g/ha (Nezara viridula): 0% |
| CCNC(=O)c1ccc(S(C)(=O)=O)c(-c2nc3cc(C(F)(F)F)nnc3n2C)n1 [reference compound] | 0 |  | 0 |  |  |  |  |
| Cn1c(-c2nc(C(=O)NC3CC3)ccc2S(C)(=O)=O)nc2cc(C(F)(F)C(F)(F)F)nnc21 [Example I-07] | 100 |  | 100 | 90 |  |  | repellent effect flag (Phaedon cochleariae; PHAECO, 20 g/ha, 7 dat): REP |
| CCNC(=O)c1ccc(S(C)(=O)=O)c(-c2nc3cc(C(F)(F)C(F)(F)F)nnc3n2C)n1 [Example I-14] | 100 | 83 |  | 90 |  |  | pest or weed control at 100 ppm (Lucilia cuprina): 90% |
| CN(C)C(=O)Nc1ccc(S(C)(=O)=O)c(-c2nc3cc(C(F)(F)F)nnc3n2C)n1 [reference compound] | 0 |  | 0 |  | 0 | 0 | pest or weed control at 20 ppm (Meloidogyne incognita): 0% |
| CNC(=O)c1ccc(S(C)(=O)=O)c(-c2nc3cc(C(F)(F)C(F)(F)F)nnc3n2C)n1 [Example I-06] | 67 |  |  | 100 | 70 | 90 | pest or weed control at 100 ppm (Lucilia cuprina): 95% |
| CCS(=O)(=O)c1ccc(N(C)C(=O)N(C)C)nc1-c1nc2cc(C(F)(F)C(F)(F)F)nnc2n1C [Example I-15] | 100 | 83 |  | 100 | 90 | 100 | pest or weed control at 20 ppm (Meloidogyne incognita): 90%; Emax at 0.8 g/ha (Nezara viridula): 80%; Emax at 4 g/ha (Nezara viridula): 100% |
| CNC(=O)c1ccc(S(C)(=O)=O)c(-c2nc3cc(C(F)(F)F)nnc3n2C)n1 [reference compound] | 0 |  |  |  | 0 | 0 |  |
| CCS(=O)(=O)c1ccc(C(=O)N(C)C)nc1-c1nc2cc(C(F)(F)C(F)(F)F)nnc2n1C [Example I-05] | 100 |  |  | 100 | 90 | 90 | pest or weed control at 100 ppm (Lucilia cuprina): 100%; Emax at 0.8 ppm (Aphis gossypii; 0.8 ppm): 65%; Emax at 0.8 ppm (Myzus persicae [3]): 95% |
| Cn1c(-c2nc(C(=O)NC3CC3)ccc2S(C)(=O)=O)nc2cc(C(F)(F)F)nnc21 [reference compound] | 50 | 0 |  |  |  |  |  |
| CCS(=O)(=O)c1ccc(C(=O)N(C)C)nc1-c1nc2cc(C(F)(F)F)nnc2n1C [reference compound] | 33 |  |  |  |  |  | Emax at 0.8 ppm (Aphis gossypii; 0.8 ppm): 0%; Emax at 0.8 ppm (Myzus persicae [3]): 50% |
| CCS(=O)(=O)c1ccc(C(=O)NC)nc1-c1nc2cc(C(F)(F)C(F)(F)F)nnc2n1C [Ex. I-39 from WO2017/025419, reference compound] |  |  |  |  |  |  | efficacy (nematicidal, gall formation) (Meloidogyne incognita; 20 ppm): 0%; efficacy (Phaedon cochleariae; 100 g/ha, 7 days (7 dat)): 0%; % efficacy (Phaedon cochleariae; PHAECO, 20 g/ha, 7 dat): 0%; % efficacy (Nilaparvata lugens): 0%; % efficacy (Myzus persicae [2]; MYZUPE, 4 g/ha, 5 dat): 0%; % efficacy (Aphis gossypii; 0.8 ppm): 0%; % efficacy (Aphis gossypii; 4 ppm): 55% |
| CCS(=O)(=O)c1ccc(N(C)C(=O)N(C)C)nc1-c1nc2cc(C(F)(F)F)nnc2n1C [reference compound] | 0 |  | 0 |  |  |  | Emax at 0.8 g/ha (Nezara viridula): 0%; Emax at 4 g/ha (Nezara viridula): 50% |
